Data taken from patent US9247759B2, “Identification of human T2R receptors that respond to bitter compounds that elicit the bitter taste in compositions, and the use thereof in assays to identify compounds that inhibit (block) bitter taste in compositions and use thereof” (SENOMYX, INC., priority 2007, dated 2016).
Read-outs that look alike come from different tables or passages of the source.

Key:
hT2R8 = hT2R8 (Homo sapiens (Human), UniProt Q9NYW2); test: hT2R8 antagonist high-throughput FLIPR assay, stable cell line with G16g44, agonist andrographolide; assay type: cell-based
Method in brief: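 Antagonist screen: compounds co-applied with agonist andrographolide at 200 μM, a dose giving 70–80% of maximal hT2R8 activation. Fluorescence measured by FLIPR in a stable HEK293 line expressing both hT2R8 and the promiscuous G16g44 protein.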

hT2R16 = hT2R16 (Homo sapiens (Human), UniProt Q9NYV7); test: hT2R panel inhibition, transient HEK293 G16g44, agonist Salicin 1 mM; assay type: cell-based; details: HEK293, compound at 25 μM; receptor activated to EC80 with the corresponding agonist; read-out: screening result against bitter receptor 16
Method in brief: (§1)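 Selectivity screen across 22 hT2Rs, each transfected singly into a G16g44-stable HEK293 background. Agonist dosed at EC80. Inhibition = reduced receptor response in presence of test compound.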

hT2R55 = test: hT2R panel inhibition, transient HEK293 G16g44, agonist Cinchonine 150 μM; assay type: cell-based, human; details: compound at 25 μM; receptor activated to EC80 with the corresponding agonist
Method in brief: as §1

hT2R67 = test: hT2R panel inhibition, transient HEK293 G16g44, agonist Andrographolide 5 μM; assay type: cell-based, human; details: compound at 25 μM; receptor activated to EC80 with the corresponding agonist
Method in brief: as §1

hT2R3 = hT2R3 (Homo sapiens (Human), UniProt Q9NYW6); test: hT2R panel inhibition, transient HEK293 G16g44, agonist Chloroquine pH6.5 50 μM; assay type: cell-based; details: HEK293, compound at 25 μM; receptor activated to EC80 with the corresponding agonist; read-out: screening result against bitter receptor 3
Method in brief: as §1

hT2R71 = hT2R71 (Homo sapiens (Human), UniProt P59536); test: hT2R panel inhibition, transient HEK293 G16g44, agonist Picric Acid 10 μM; assay type: cell-based; details: HEK293, compound at 25 μM; receptor activated to EC80 with the corresponding agonist; read-out: screening result against bitter receptor 71
Method in brief: as §1

hT2R10 = hT2R10 (Homo sapiens (Human), UniProt Q9NYW0); test: hT2R panel inhibition, transient HEK293 G16g44, agonist Strychnine 50 μM; assay type: cell-based; details: HEK293, read-out: screening result against bitter receptor 10, compound at 25 μM; receptor activated to EC80 with the corresponding agonist
hT2R54 = test: hT2R panel inhibition, transient HEK293 G16g44, agonist Ranitidine 5 mM; assay type: cell-based, human; details: compound at 25 μM; receptor activated to EC80 with the corresponding agonist
Method in brief: as §1

hT2R63 = test: hT2R panel inhibition, transient HEK293 G16g44, agonist Caffeine 1 mM or Andrographolide 100 μM; assay type: cell-based, human; details: compound at 25 μM; receptor activated to EC80 with the corresponding agonist
Method in brief: as §1

hT2R14 = hT2R14 (Homo sapiens (Human), UniProt Q9NYV8); test: hT2R panel inhibition, transient HEK293 G16g44, agonist Aristolochic Acid 2 μM; assay type: cell-based; details: HEK293, compound at 25 μM; receptor activated to EC80 with the corresponding agonist; read-out: screening result against bitter receptor 14
Method in brief: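 Agonist challenge was at EC80, with 0.5 mM andrographolide on hT2R8 and 2 μM aristolochic acid on hT2R14. Inhibition was measured in functional assays in HEK293 cells that stably carry the promiscuous G protein G16g44 and were transiently transfected with the individual receptor.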

hT2R9 = hT2R9 (Homo sapiens (Human), UniProt Q9NYW1); test: hT2R panel inhibition, transient HEK293 G16g44, agonist Ofloxacin 1 mM; assay type: cell-based; details: HEK293, compound at 25 μM; receptor activated to EC80 with the corresponding agonist; read-out: screening result against bitter receptor 9
Method in brief: as §1

hT2R75 = hT2R75 (Homo sapiens (Human), UniProt P59540); test: hT2R panel inhibition, transient HEK293 G16g44, agonist Strychnine 1 μM; assay type: cell-based; details: HEK293, read-out: screening result against bitter receptor 75, compound at 25 μM; receptor activated to EC80 with the corresponding agonist
hT2R65 = test: hT2R panel inhibition, transient HEK293 G16g44, agonist Oleuropein 1 mM; assay type: cell-based, human; details: compound at 25 μM; receptor activated to EC80 with the corresponding agonist
Method in brief: as §1

hT2R5 = hT2R5 (Homo sapiens (Human), UniProt Q9NYW4); test: hT2R panel inhibition, transient HEK293 G16g44, agonist Picoline 10 mM; assay type: cell-based; details: HEK293, compound at 25 μM; receptor activated to EC80 with the corresponding agonist; read-out: screening result against bitter receptor 5
Method in brief: as §1

hT2R61 = hT2R61 (Homo sapiens (Human), UniProt P59537); test: hT2R panel inhibition, transient HEK293 G16g44, agonist Aristolochic Acid 25 nM; assay type: cell-based; details: HEK293, compound at 25 μM; receptor activated to EC80 with the corresponding agonist; read-out: screening result against bitter receptor 61
Method in brief: as §1

hT2R13 = hT2R13 (Homo sapiens (Human), UniProt Q9NYV9); test: hT2R panel inhibition, transient HEK293 G16g44, agonist Oxyphenonium 1 mM; assay type: cell-based; details: HEK293, compound at 25 μM; receptor activated to EC80 with the corresponding agonist; read-out: screening result against bitter receptor 13
Method in brief: as §1

hT2R7 = hT2R7 (Homo sapiens (Human), UniProt Q9NYW3); test: hT2R panel inhibition, transient HEK293 G16g44, agonist Chloroquine pH6.5 10 mM; assay type: cell-based; details: HEK293, compound at 25 μM; receptor activated to EC80 with the corresponding agonist; read-out: screening result against bitter receptor 7
Method in brief: as §1

hT2R64 = hT2R64 (Homo sapiens (Human), UniProt P59538); test: hT2R panel inhibition, transient HEK293 G16g44, agonist Aristolochic Acid 1 μM; assay type: cell-based; details: HEK293, compound at 25 μM; receptor activated to EC80 with the corresponding agonist; read-out: screening result against bitter receptor 64
Method in brief: as §1

hT2R44 = test: hT2R panel inhibition, transient HEK293 G16g44, agonist Denatonium 0.5 μM; assay type: cell-based, human; details: compound at 25 μM; receptor activated to EC80 with the corresponding agonist
Method in brief: as §1

hT2R51 = hT2R51 (Homo sapiens (Human), UniProt P59533); test: hT2R panel inhibition, transient HEK293 G16g44, agonist Prop 2.5 μM; assay type: cell-based; details: HEK293, compound at 25 μM; receptor activated to EC80 with the corresponding agonist; read-out: screening result against bitter receptor 51
Method in brief: as §1

[1] = read-out: IC50 on hT2R8 bitter receptor
[2] = table after Example 10-97, read-out: hT2R8 IC50

Chain of hT2R8 (Q9NYW2 whole entry): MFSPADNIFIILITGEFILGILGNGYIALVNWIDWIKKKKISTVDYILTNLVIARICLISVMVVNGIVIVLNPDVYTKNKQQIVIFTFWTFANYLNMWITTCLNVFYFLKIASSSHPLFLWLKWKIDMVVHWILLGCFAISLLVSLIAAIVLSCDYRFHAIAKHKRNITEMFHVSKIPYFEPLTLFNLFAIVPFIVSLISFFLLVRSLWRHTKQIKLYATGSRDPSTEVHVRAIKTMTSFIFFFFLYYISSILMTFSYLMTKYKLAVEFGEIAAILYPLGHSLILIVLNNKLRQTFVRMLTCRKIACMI
Chain of hT2R5 (Q9NYW4 whole entry): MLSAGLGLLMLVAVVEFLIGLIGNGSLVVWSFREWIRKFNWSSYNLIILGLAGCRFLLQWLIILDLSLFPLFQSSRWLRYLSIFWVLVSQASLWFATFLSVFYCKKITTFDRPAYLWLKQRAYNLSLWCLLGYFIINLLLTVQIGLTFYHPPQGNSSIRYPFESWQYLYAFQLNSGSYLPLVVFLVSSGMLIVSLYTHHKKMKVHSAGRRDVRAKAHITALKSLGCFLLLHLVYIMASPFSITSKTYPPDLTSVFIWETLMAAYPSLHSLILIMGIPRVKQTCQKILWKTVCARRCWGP
Chain of hT2R51 (P59533 whole entry): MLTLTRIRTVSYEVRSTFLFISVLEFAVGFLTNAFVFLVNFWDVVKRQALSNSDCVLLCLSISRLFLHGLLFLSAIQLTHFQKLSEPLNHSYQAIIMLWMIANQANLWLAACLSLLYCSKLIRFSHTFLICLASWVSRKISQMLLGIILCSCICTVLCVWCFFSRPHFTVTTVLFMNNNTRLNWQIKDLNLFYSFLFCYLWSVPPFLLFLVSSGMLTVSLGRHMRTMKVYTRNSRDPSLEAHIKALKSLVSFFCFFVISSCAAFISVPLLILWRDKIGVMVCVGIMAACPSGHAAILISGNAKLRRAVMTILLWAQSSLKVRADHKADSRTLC
Chain of hT2R3 (Q9NYW6 whole entry): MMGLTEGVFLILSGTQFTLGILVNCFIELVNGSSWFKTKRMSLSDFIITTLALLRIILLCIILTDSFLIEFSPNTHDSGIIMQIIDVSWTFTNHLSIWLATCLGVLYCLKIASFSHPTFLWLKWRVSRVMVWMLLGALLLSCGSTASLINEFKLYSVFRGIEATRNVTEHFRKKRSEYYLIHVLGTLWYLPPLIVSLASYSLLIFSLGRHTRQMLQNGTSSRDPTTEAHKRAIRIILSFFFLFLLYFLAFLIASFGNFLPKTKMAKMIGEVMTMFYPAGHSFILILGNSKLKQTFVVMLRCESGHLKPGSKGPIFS
Chain of hT2R64 (P59538 whole entry): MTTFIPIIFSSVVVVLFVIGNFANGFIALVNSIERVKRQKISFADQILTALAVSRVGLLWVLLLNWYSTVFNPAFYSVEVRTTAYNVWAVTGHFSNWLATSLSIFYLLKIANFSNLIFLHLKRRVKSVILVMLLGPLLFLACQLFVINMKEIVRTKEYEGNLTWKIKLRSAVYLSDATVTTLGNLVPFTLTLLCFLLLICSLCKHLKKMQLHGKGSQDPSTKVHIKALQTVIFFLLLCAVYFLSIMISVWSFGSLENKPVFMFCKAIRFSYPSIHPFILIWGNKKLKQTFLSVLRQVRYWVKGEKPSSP
Chain of hT2R7 (Q9NYW3 whole entry): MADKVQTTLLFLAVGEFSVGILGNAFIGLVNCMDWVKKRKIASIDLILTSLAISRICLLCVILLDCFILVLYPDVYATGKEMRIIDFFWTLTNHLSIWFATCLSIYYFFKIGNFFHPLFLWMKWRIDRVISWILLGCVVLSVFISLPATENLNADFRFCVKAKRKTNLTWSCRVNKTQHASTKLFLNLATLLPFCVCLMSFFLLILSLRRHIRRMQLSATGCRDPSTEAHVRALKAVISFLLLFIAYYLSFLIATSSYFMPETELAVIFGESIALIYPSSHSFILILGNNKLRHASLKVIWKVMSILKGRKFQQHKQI
Chain of hT2R16 (Q9NYV7 whole entry): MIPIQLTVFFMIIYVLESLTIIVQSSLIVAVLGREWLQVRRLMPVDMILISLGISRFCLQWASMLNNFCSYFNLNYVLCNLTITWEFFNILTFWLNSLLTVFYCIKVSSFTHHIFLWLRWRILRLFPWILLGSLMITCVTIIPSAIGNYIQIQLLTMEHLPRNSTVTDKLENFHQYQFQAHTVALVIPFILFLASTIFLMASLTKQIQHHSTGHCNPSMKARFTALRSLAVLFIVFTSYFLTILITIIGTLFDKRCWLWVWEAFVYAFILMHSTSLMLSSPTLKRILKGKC
Chain of hT2R9 (Q9NYW1 whole entry): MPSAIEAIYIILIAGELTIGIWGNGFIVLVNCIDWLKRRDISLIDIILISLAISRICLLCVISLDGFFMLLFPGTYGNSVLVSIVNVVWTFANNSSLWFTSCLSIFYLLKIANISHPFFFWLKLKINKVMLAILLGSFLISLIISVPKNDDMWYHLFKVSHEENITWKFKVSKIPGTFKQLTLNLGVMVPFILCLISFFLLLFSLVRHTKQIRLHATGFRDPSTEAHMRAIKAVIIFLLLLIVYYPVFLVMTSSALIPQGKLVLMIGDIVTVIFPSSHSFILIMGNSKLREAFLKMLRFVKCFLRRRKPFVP
Chain of hT2R13 (Q9NYV9 whole entry): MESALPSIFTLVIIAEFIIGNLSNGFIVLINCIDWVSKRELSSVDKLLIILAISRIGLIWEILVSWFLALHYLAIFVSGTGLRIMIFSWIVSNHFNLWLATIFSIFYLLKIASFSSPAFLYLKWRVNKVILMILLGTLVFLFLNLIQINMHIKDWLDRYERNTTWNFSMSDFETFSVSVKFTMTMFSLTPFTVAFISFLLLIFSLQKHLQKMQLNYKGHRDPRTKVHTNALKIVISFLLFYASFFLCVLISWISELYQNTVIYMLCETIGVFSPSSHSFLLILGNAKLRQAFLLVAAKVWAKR
Chain of hT2R75 (P59540 whole entry): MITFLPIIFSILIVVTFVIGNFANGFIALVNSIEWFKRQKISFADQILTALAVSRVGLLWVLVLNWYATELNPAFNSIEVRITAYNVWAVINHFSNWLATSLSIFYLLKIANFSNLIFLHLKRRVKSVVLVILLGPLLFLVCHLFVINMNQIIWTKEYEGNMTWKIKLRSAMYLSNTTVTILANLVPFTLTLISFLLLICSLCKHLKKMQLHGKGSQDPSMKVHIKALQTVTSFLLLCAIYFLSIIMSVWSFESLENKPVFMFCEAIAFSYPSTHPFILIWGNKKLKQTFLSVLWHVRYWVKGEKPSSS
Chain of hT2R10 (Q9NYW0 whole entry): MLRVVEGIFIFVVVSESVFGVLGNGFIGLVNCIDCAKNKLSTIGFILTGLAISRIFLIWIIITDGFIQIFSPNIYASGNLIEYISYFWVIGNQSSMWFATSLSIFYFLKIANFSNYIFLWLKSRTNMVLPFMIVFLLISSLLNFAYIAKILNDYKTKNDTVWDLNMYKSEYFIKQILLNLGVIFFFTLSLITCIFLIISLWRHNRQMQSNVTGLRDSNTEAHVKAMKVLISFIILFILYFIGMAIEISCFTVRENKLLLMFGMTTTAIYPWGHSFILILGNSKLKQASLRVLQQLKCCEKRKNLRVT
Chain of hT2R71 (P59536 whole entry): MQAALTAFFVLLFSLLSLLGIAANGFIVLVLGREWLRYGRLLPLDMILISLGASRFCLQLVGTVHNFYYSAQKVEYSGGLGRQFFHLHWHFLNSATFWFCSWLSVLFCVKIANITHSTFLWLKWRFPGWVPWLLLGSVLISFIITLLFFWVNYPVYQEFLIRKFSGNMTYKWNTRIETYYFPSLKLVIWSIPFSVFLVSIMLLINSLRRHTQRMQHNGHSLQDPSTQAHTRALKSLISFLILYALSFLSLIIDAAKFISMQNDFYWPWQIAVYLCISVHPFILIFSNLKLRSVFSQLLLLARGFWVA
Chain of hT2R14 (Q9NYV8 whole entry): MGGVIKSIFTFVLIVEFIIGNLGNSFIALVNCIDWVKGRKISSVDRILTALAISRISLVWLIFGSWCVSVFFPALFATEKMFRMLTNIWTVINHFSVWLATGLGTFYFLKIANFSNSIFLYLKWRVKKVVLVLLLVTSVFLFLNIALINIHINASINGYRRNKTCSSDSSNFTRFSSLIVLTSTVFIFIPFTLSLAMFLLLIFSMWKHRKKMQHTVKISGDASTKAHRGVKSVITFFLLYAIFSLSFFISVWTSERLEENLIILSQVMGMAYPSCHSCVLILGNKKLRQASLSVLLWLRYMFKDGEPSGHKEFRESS
Chain of hT2R61 (P59537 whole entry): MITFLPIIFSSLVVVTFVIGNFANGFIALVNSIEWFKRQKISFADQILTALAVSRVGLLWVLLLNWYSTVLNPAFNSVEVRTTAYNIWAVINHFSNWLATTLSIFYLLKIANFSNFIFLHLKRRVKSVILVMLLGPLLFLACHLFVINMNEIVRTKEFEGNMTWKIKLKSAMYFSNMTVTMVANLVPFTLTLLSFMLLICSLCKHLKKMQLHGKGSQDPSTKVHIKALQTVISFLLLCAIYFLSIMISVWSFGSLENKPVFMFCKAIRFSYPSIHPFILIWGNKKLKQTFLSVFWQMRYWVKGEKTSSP

COc1cccc(C(=O)Nc2cnn(Cc3c(C)noc3C)c2)c1 [Example 4-7, N-(1-((3,5-dimethylisoxazol-4-yl)methyl)-1H-pyrazol-4-yl)-3-methoxybenzamide]
IC50 (hT2R8; [1]): 390 nM
melting point: 127 to 129 °C

Cc1noc(C)c1Cn1cc(N2C(=O)CN(CCc3cccc(F)c3)C2=O)cn1 [Example 10-77, 3-(1-((3,5-dimethylisoxazol-4-yl)methyl)-1H-pyrazol-4-yl)-1-(3-fluorophenethyl)imidazolidine-2,4-dione]
IC50 (hT2R8; [1]): 60 nM
IC50 (hT2R8; [2]): 64 nM
melting point: 110 to 111 °C

Cc1noc(C)c1Cn1cc(N2C(=O)CN(CCOc3ccccc3)C2=O)cn1 [Example 10-5, 3-(1-((3,5-dimethylisoxazol-4-yl)methyl)-1H-pyrazol-4-yl)-1-(2-phenoxyethyl)imidazolidine-2,4-dione]
IC50 (hT2R8; [1]): 60 nM
IC50 (hT2R8; [2]): 63 nM
melting point: 117 to 118 °C

COc1ccc(CN(Cc2ccccc2)S(=O)(=O)c2ccc(C(=O)O)cc2)cc1C [Example 5-89, 4-(N-benzyl-N-(4-methoxy-3-methylbenzyl)sulfamoyl)benzoic acid]
inhibition at 25 µM (hT2R16): 20 to 40%
screening result against bitter receptor 55 (hT2R55): ++++ (80% or greater inhibition = ++++)
screening result against bitter receptor 67 (hT2R67): + (20% to 40% inhibition = +)
inhibition at 25 µM (hT2R3): 40 to 60%
inhibition at 25 µM (hT2R71): 60 to 80%
inhibition at 25 µM (hT2R10): 60 to 80%
screening result against bitter receptor 54 (hT2R54): + (20% to 40% inhibition = +)
screening result against bitter receptor 63 (hT2R63): ++++ (80% or greater inhibition = ++++)
inhibition at 25 µM (hT2R14): > 80%
inhibition at 25 µM (hT2R9): 20 to 40%
inhibition at 25 µM (hT2R75): 20 to 40%
screening result against bitter receptor 65 (hT2R65): ++++ (80% or greater inhibition = ++++)
inhibition at 25 µM (hT2R5): 20 to 40%
inhibition at 25 µM (hT2R61): > 80%
inhibition at 25 µM (hT2R13): 20 to 40%
inhibition at 25 µM (hT2R7): 40 to 60%
inhibition at 25 µM (hT2R64): 60 to 80%
screening result against bitter receptor 44 (hT2R44): +++ (60% to 80% inhibition = +++)
inhibition at 25 µM (hT2R51): > 80%
